Laboratory results as given in patent publication US6340784B1, “Method for selective increase of the anticarcinogenic glucosinolates in Brassica sp” (Plant Bioscience Limited, priority 1998, dated 2002).
Like-named read-outs stand apart in the source and are kept apart here. Marks after values point to notes of the source that are not given here.

What was measured:
[1] = tested on: QR in murine hepatoma Hepa 1c1c7 cells; test: Induction of QR (quinone reductase, phase II enzyme) activity in Hepa 1c1c7 cells; type: cell-based; design: induction of QR (fold): unit of the concentration uncertain; conditions: for CD: pure compound
Protocol: Extracts from the freeze-dried material were assessed for their induction activity in murine hepatoma Hepa 1c1c7 cells. Approximately 0.1 g of milled freeze-dried material was moistened by addition of water (2 ml), homogenised and left at room temperature for 1 hr with occasional mixing. Hot 70% (v/v) methanol (3 ml) was added and mixed thoroughly prior to incubation for 15 min at +70° C. The homogenates were cooled to room temperature and centrifuged for 5 min at 3000 r.p.m. Supernatants were removed and the volume decreased in a vacuum centrifuge to approximately one fifth of the initial volume. The resulting concentrates were filtered through sterile non-pyrogenic filters ([…]) and stored at −70° C. prior to testing. The concentrations of each extract were expressed as dry weight of original material to each ml of culture medium.
Induction was measured according to published methods (Tawfiq, N., Heaney, R. K., Plumb, J. A., Fenwick, G. R., Musk, S. R. R., & Williamson, G. (1995) Carcinogenesis 16, 1191-1194., Prochaska, H. J., & Santamaria, A. B. (1988) Anal. Biochem. 169, 328-336., Williamson, G., Plumb, G. W., Uda, Y., Price, K. R., & Rhodes, M. J. C. (1996) Carcinogenesis 17, 2385-2387.) with the following modifications. Each sample was analysed at eight concentrations using four replicates for each concentration. b-Napthoflavone was used as a positive control at a concentration of 0.2 mM. […] Each cultivar/hybrid was extracted on three occasions and analysed separately.

[2] = tested on: QR in murine hepatoma Hepa 1c1c7 cells; conditions: literature value, See Zhang (2), cited from earlier work
[3] = assuming 100% conversion of glucosinolate to isothiocyanate, from plant extracts

Structure (SMILES): C[S+]([O-])CCCN=C=S (stereo not drawn) [3-methylsulfinylpropyl isothiocyanate]
- apparent CD value [1, 3]: 0.5 mM
- CD value for synthetic isothiocyanate [2]: 2.4 µM

Structure (SMILES): CSCCCN=C=S [3-methylthiopropyl isothiocyanate]
- apparent CD value [1, 3]: 1.6 mM
- CD value for synthetic isothiocyanate [2]: 3.5 µM

Structure (SMILES): C[S+]([O-])CCCCN=C=S (stereo not drawn) [Synthetic sulforaphane, 4-methylsulfinylbutyl isothiocyanate]
- induction of QR (fold) ([1]; at 1.6 (unit uncertain)): three-fold
- ability to induce QR activity (in words) ([1]; extracts or compound, cultivar extracts 0.001 mg/ml to 0.125 mg/ml): potent inducer
- CD [1]: 0.4 mM
- apparent CD value ([1]; synthetic compound, positive control): 0.0003 mM
- CD value for synthetic isothiocyanate [2]: 0.4-0.8§ μM
- CD value for synthetic isothiocyanate ([2]; listed as 4-methylsulfinylbutyl): 0.4 to 0.8 µM

Structure (SMILES): O=c1cc(-c2ccccc2)oc2ccc3ccccc3c12 [b-Napthoflavone]
- induction of QR (fold) ([1]; positive control at 0.2 (unit uncertain)): three-fold
- CD [1]: 0.02 mM
